Data published in publication PMC4368105, “Oleic Acid Metabolism via a Conserved Cytochrome P450 System-Mediated ω-Hydroxylation in the Bark Beetle-Associated Fungus Grosmannia clavigera” (PLoS ONE, 2015).

Assays:
[1] = target: T1, GsCYP630B18 with GsCPR1 (RS1) (Leptographium clavigerum, UniProt F0XBA3); assay: reconstituted membranes, LC/MS of 18-hydroxyoleic acid product; type: biochemical; settings: NADPH, 50 μM oleic acid, pH 7.4, room temperature, 1 h; GsCPR1 as redox partner
T1 construct: gene CMQ_5365; with NADPH--cytochrome P450 reductase
T1 sequence (F0XBA3 1-522): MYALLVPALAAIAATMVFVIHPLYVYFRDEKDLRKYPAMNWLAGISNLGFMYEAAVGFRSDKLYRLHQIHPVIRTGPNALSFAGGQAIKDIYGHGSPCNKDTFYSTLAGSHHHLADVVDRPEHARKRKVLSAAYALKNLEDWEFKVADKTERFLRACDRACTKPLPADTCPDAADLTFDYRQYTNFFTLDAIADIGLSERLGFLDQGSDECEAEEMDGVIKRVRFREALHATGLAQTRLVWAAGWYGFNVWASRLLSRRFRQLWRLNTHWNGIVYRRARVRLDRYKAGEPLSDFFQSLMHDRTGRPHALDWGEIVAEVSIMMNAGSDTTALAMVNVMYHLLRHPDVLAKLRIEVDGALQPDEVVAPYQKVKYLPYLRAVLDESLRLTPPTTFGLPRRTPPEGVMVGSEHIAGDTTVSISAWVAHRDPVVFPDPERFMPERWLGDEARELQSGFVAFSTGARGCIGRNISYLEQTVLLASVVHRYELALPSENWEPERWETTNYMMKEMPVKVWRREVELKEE
T1 sequence (F0XUV1 1-690 partner): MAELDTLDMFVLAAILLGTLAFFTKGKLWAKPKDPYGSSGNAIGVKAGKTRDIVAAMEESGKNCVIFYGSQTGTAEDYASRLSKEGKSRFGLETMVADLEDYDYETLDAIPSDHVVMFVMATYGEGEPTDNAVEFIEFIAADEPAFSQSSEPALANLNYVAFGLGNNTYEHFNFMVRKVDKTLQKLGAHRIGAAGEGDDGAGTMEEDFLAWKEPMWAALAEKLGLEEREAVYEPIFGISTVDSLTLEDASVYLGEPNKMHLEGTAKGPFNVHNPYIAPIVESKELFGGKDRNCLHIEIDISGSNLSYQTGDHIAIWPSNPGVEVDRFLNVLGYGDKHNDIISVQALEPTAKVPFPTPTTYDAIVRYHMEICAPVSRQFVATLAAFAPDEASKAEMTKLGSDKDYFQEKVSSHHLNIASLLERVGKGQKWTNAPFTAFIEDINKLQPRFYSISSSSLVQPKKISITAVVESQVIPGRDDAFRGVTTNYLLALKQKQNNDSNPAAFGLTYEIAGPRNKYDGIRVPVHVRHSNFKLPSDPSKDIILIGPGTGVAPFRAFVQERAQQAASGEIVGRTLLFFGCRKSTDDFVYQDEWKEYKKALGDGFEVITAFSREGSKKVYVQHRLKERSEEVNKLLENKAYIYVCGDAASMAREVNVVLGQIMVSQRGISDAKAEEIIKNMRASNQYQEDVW

[2] = target: T2, GsCYP630B18 with GsCPR2 (RS2) (Leptographium clavigerum, UniProt F0XBA3); assay: as above; type: biochemical; settings: NADPH, 50 μM oleic acid, pH 7.4, room temperature, 1 h; GsCPR2 as redox partner
T2 construct: gene CMQ_5365; with NADPH--cytochrome P450 reductase
T2 sequence (F0XBA3 1-522): T1 sequence (F0XBA3 1-522)
T2 sequence (F0XBA4 1-695 partner): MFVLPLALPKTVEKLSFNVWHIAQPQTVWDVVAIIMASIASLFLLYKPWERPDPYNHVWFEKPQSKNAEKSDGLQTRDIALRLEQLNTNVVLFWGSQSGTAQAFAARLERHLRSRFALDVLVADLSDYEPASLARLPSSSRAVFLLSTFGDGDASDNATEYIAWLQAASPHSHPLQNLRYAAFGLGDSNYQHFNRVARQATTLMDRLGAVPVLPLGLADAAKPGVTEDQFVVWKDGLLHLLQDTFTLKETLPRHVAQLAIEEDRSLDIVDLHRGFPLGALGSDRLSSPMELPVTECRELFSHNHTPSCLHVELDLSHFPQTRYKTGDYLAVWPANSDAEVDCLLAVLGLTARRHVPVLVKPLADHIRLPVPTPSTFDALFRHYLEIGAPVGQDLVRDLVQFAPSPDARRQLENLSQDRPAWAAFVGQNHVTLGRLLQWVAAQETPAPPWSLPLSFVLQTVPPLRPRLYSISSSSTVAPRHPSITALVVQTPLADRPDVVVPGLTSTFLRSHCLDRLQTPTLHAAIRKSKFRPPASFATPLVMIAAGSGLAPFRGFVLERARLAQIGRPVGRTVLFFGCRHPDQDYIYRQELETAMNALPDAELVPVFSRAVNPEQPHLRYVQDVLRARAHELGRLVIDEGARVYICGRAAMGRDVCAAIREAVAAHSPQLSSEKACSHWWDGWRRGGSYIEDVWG

CCCCCCCC/C=C\CCCCCCCC(=O)O [oleic acid]
reconstituted membranes, LC/MS of 18-hydroxyoleic acid product [1]: CYP630B18 converted oleic acid, but none of the other tested compounds | reconstituted membranes, LC/MS of 18-hydroxyoleic acid product [2]: CYP630B18 converted oleic acid, but none of the other tested compounds
